Usually GI50 stands for the concentration that inhibits growth by half. Lower therefore signals more potent growth inhibition.

Data on three compounds can be found in publication PMC10436262, “Structure-Based Design of Inhibitors of the m^6A-RNA Writer Enzyme METTL3” (ACS Bio & Med Chem Au, 2023).

Experiment [1] concerns the target METTL1 (Homo sapiens, UniProt Q9UBP6). In words: Thermal shift assay. It counts as binding. The protocol:
(§1) METTL1 mediates the formation of N7-methylguanine in a subset of RNA species, such as tRNAs, mRNAs, and microRNAs, whereas METTL16 is able to N6-methylate a subset of mRNAs and U6 small nuclear RNAs.[23],[24] The co-product of methyl transfer catalysis, S-adenosyl-L-homocysteine (SAH), was used as a positive control in the thermal shift assay. […] Compound 54 at 200 μM was able to shift the melting curve of METTL3/METTL14 by 1.8 °C compared to the DMSO control (Figure S4).
(§2) The protein sample was buffered in 25 mM HEPES (pH 7.4) and 150 mM NaCl and assayed in a 96-well plate at a final concentration of 2 μM in 20 μL volume. The SYPRO Orange dye was added as a fluorescence probe at a dilution of 1:1000. The compound 54 concentrations tested were 10, 50, 100, and 200 μM, while the SAH concentrations tested were 100, 500, 1000, and 2000 μM. The temperature was raised with a step of 0.5 °C starting from 20 to 80 °C, and fluorescence readings were taken at each interval. The reported values (ΔTm) are calculated as the difference between the transition midpoints of an individual sample and the average of the reference wells (containing the protein and the DMSO only) in the same plate. The DMSO concentration was kept at 1% (v/v).

In experiment [2] the target is T1, METTL16 (Homo sapiens, UniProt Q86W50).
T1 sequence (Q86W50 1-562): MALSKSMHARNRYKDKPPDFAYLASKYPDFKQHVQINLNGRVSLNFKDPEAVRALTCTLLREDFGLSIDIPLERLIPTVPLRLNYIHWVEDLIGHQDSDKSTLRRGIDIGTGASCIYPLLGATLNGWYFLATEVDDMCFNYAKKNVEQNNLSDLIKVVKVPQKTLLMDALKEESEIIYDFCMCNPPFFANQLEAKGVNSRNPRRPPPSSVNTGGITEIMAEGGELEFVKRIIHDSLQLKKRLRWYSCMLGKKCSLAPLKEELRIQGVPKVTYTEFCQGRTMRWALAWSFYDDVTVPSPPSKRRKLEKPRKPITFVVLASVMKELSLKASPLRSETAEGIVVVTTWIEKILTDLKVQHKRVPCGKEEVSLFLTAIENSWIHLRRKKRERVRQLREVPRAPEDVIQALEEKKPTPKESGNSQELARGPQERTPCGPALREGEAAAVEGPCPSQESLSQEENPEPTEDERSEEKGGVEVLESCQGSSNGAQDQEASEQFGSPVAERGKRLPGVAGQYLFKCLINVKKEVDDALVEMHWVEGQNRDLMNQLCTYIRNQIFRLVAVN
Description: Thermal shift assay. It counts as binding. The method, then: as §1, §2

Experiment [3] addresses T2, METTL3/METTL14 (Homo sapiens, UniProt Q86U44).
T2 construct: made in house; host or cells: Sf9 insect cells (baculovirus)
In words: Thermal shift assay. Type of experiment: binding. The settings on record: vs DMSO control. The protocol: as §1, §2

Experiment [4] has as its system m^6A/A level in MOLM-13 cells. Also noted: method as in PMID 34237194. Conditions: read-out: IC50 for m^6A/A reduction; cited from earlier work.
The target in experiment [5] is T2, METTL3/METTL14. Description: METTL3 enzymatic inhibition assay by homogeneous time-resolved fluorescence (HTRF). Type of experiment: biochemical. The protocol:
Compound potencies were evaluated by using a previously reported METTL3 inhibition assay. […] Tested compounds that inhibit METTL3 decrease the m^6A level and thus reduce the HTRF signal. The biochemical assay was performed, as described previously.[19] The IC50 values derived from fitting a dose–response curve to the data using nonlinear regression. The IC50 values are given as an average of at least two independent measurements for each compound in the text.
(In general: TR-FRET usually uses a lanthanide donor and a delayed reading to cut background.)

For experiment [6], the system named is MOLM-13 cells. Description: Antiproliferative activity / cytotoxicity (GI50), CellTiter-Glo. It counts as cell-based. The method, then: We then decided to evaluate the cellular potency of inhibitor 54. The antiproliferative activity on MOLM-13, which is an acute myeloid leukemia cell line, was measured using a previously published protocol with a 3-day incubation time.[10]
MOLM-13 cells were cultured in RPMI 1640 medium containing 10% Gibco FBS and 1% penicillin/streptomycin (complete medium) in 5% CO2 at 37 °C in a humidified incubator, with maintained cell densities at 0.6–2 × 10^6 cells/mL.
Cells were seeded in white clear-bottom 96-well plates at a density of 2 × 10^4 cells/well in 50 μL of the complete RPMI medium and treated with 50 μL increasing concentrations of compound 54 dissolved in DMSO (final concentration of compounds 1.25–160 μM) or DMSO only (0.5% (v/v)) as a negative control and incubated for 72 h at 37 °C with 5% CO2. Cell viability was determined using a CellTiter-Glo luminescent cell viability assay (Promega G7570) based on the detection of ATP according to the manufacturer’s instructions. […] The luminescence was recorded using a Tecan Infinite […] M1000 microplate reader from the top. The background luminescence value was obtained from wells containing the CellTiter-Glo reagent and medium without cells. Cell viability curves were plotted in GraphPad Prism 9 and fitted with nonlinear regression, from which GI50 values were determined.

Where [7] appears, read: SAH at 2000 μM, vs DMSO control.

T2 sequence (Q86U44 whole entry): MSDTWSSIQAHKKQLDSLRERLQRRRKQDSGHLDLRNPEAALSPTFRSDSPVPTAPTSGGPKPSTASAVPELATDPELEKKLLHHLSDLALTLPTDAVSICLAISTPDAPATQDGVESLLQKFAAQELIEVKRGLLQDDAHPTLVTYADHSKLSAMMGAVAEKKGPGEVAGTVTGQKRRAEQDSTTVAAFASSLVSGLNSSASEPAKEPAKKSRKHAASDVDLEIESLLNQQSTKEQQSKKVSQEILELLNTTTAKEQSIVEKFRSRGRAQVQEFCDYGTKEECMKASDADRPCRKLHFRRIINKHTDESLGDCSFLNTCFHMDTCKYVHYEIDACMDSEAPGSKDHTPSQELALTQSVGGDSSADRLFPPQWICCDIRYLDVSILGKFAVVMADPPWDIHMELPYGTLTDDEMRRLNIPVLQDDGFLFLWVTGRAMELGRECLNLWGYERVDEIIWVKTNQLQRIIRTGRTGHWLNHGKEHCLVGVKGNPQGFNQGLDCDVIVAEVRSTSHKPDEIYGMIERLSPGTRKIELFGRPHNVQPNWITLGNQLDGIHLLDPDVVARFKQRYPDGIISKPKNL
T2 sequence (Q9HCE5 whole entry partner): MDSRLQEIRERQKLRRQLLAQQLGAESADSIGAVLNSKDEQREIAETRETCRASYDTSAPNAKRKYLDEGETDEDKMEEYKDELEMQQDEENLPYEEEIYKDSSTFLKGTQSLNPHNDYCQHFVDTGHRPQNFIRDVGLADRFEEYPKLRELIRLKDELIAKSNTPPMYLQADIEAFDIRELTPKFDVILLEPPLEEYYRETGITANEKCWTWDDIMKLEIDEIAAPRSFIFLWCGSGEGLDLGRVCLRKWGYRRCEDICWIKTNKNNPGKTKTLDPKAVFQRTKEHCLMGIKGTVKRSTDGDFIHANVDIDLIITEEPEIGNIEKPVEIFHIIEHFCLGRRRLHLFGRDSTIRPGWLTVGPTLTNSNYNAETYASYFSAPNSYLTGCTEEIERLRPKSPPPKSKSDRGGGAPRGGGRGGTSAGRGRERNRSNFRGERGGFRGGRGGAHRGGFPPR
METTL1, sequence (Q9UBP6 whole entry, species assumed): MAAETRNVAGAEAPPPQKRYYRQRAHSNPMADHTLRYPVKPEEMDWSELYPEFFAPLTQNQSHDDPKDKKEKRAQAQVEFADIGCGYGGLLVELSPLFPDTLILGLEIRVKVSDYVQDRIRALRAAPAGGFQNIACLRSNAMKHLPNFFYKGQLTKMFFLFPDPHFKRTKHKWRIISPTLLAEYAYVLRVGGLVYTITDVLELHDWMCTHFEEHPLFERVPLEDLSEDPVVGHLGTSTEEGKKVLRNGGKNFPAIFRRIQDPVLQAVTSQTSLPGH

With `Nc1ncnc2c1ncn2[C@@H]1O[C@H](CSCC[C@H](N)C(=O)O)[C@@H](O)[C@H]1O` [SAH, S-adenosyl-L-homocysteine, reference compound], the ΔTm is 8.75 °C in experiment [1] (setting [7]), 2.5 °C in experiment [2] (setting [7]) and 4.05 °C in experiment [3] (SAH at 2000 μM).

`CC1(C)CCN(Cc2ccc(C(=O)NC[C@]3(O)CCCN(c4cc(NCc5ccccc5)ncn4)C3)c(O)c2)CC1` [UZH1a]: the IC50 in experiment [4] was 4.6 µM.

Consider `CC(C)C1N(Cc2ccc3c(NCC4(O)CCCN(c5cc(NCc6ccccc6)ncn5)C4)cccc3c2)CC12CCC2` (centres unmarked) [compound 54, 1-(6-(benzylamino)pyrimidin-4-yl)-3-(((6-((1-isopropyl-2-azaspiro[3.3]heptan-2-yl)methyl)naphthalen-1-yl)amino)methyl)piperidin-3-ol], for which, in experiment [5] (HTRF assay, racemic mixture, read-out: IC50), the IC50 turned out to be 0.054 µM. The “fold improvement in affinity (IC50) vs compound 46” value in experiment [5] (matched pair 46:54) is reported as 6.7 fold. In addition, the GI50 in experiment [6] (Homo sapiens, MOLM-13, 3-day (72 h) incubation, average of two biological replicates) is 6 µM. In addition, the “factor by which cellular GI50 is higher than biochemical IC50” value in experiment [6] (MOLM-13 GI50 vs HTRF IC50) is on record as “about 100”. In addition, the “ΔTm (shift of melting curve)” value in experiment [1] (compound up to 200 μM) and in experiment [2] (compound up to 200 μM) was “No shift” each time. Also, the ΔTm at 200 µM in experiment [3] (compound at 200 μM, read-out: ΔTm (shift of melting curve)) came out at 1.8 °C.
